Experiment in all cases: DTP human tumour cell line panel, 48 h
Experiment [1] deals with NCI-H226.
Experiment [2] deals with OVCAR-5.
The test system of experiment [3] is HCT-116.
Experiment [4] relates to SK-MEL-5.
The test system of experiment [5] is NCI-H522.
Experiment [6] concerns MCF7.
Experiment [7] has as its system M14.
Experiment [8] deals with IGROV-1.
The subject of experiment [9] is PC-3.
The subject of experiment [10] is K562.
For experiment [11], the system named is NCI/ADR-RES.
The test system of experiment [12] is HCT-15.
Experiment [13] concerns UO-31.
The subject of experiment [14] is SF-295.
Experiment [15] concerns CCRF-CEM.
The subject of experiment [16] is SNB-19.
The subject of experiment [17] is SF-268.
In experiment [18] the test system is OVCAR-4.
For experiment [19], the system named is MDA-MB-435.
Experiment [20] relates to ACHN.

The structures appear in SMILES notation.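 Tested at 5 concentrations; 48 h exposure; 96-well plates; endpoints linearly interpolated, else capped at highest concentration. GI50 = concentration required for 50% inhibition of growth.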 Active and inactive are the calls of the source. Rule as the data show it: active = GI50 up to about 1.1 µM and inactive = higher. Where only a bound is given, the exact number is not on record here.

Usually GI50 stands for the concentration at which growth is held to half of that of the control. Turning to `CNc1nc2c(C)ccc3nc(N(C)C)[nH]c3c-2n1`, the GI50 in experiment [1] is 76.7 µM (inactive); in [2], 74.8 µM (inactive); in [3], 38.9 µM (inactive); in [4], 20.7 µM (inactive); in experiment [5], 54 µM (inactive); in experiment [6] it was 31.5 µM (inactive). For the same molecule, the GI50 in experiment [7] is 25.4 µM (inactive); in experiment [8] it was 47.8 µM (inactive); in experiment [9], 46.9 µM (inactive); in experiment [10], 12.8 µM (inactive); in [11] it was 77.1 µM (inactive); in experiment [12] it was 23.9 µM. For the same molecule, the GI50 in [13] is 34.6 µM (inactive); in experiment [14] it was 55.5 µM (inactive); in experiment [15] it was 81.8 µM (inactive); in experiment [16] it was 15.3 µM (inactive); in experiment [17] it was 32.4 µM (inactive); in [18] it was 19.5 µM (inactive). Besides, the GI50 in [19] is 50.8 µM (inactive); in experiment [20], 15.2 µM (inactive).

Turning to `Cc1cc(OCc2nnc3sc(NC(=O)c4ccccc4)nn23)ccc1Cl`, the GI50 is > 100 µM (inactive) in [1]; 56.8 µM (inactive) in experiment [2]; 28.7 µM (inactive) in experiment [3]; 32.4 µM (inactive) in experiment [4]; 30.6 µM (inactive) in [5]; 30.3 µM (inactive) in experiment [6]. Moreover, the GI50 in [7] is 27.4 µM (inactive); in experiment [8] it was 25.4 µM (inactive); in [9], 33.7 µM (inactive); in experiment [10], 94.2 µM (inactive); in experiment [11] it was 37 µM (inactive); in experiment [12] it was 38.7 µM. In addition, the GI50 in experiment [13] was 19 µM (inactive); in experiment [14], 36.6 µM (inactive); in experiment [15], 43.3 µM (inactive); in [16], 33.9 µM (inactive); in experiment [17] it was 45 µM (inactive); in experiment [18] it was > 100 µM (inactive). In addition, the GI50 in experiment [19] is 22 µM (inactive); in experiment [20], 20.5 µM (inactive).

Consider `C=C/C(C)=C\CC1[C@](C)(O)CC[C@H]2C(C)(C)C(=O)CC[C@]12C` (stereo not given in full), for which the GI50 is > 100 µM (inactive) in [1]; > 100 µM (inactive) in experiment [2]; 47.5 µM (inactive) in [3]; 44.4 µM (inactive) in [4]; 62.7 µM (inactive) in experiment [5]; 60.4 µM (inactive) in experiment [6]. Also, the GI50 was 39.4 µM (inactive) in experiment [7]; > 100 µM (inactive) in [8]; 34.6 µM (inactive) in experiment [9]; 57.7 µM (inactive) in [10]; 60 µM (inactive) in experiment [11]; 51.9 µM in experiment [12]. Besides, the GI50 in experiment [13] is 23.9 µM (inactive); in experiment [14], 81.7 µM (inactive); in [15] it was 46.6 µM (inactive); in experiment [16], > 100 µM (inactive); in experiment [17], > 100 µM (inactive); in experiment [18] it was 54.3 µM (inactive). Also, the results for the GI50 in experiment [19] and in experiment [20] were 70.5 µM (inactive) and > 100 µM (inactive), respectively.

`O=c1[nH]c(=O)n(C2CC(O)C(CO)O2)c2nc3cc4ccccc4cc3nc12` (stereo not given): the GI50 in experiment [1], in [2], in experiment [3], in experiment [4], in experiment [5] and in experiment [6] was > 100 µM (inactive) throughout. Further, the GI50 in experiment [7] is > 100 µM (inactive); in [8], 98.4 µM (inactive); in experiment [9], > 100 µM (inactive); in experiment [10], > 100 µM (inactive); in experiment [11], > 100 µM (inactive); in experiment [12] it was over 100 µM. Further, the GI50 is > 100 µM (inactive) in experiment [13]; 75.2 µM (inactive) in [14]; 36.6 µM (inactive) in [15]; 14.5 µM (inactive) in [16]; 73.1 µM (inactive) in experiment [17]; > 100 µM (inactive) in experiment [18]. For the same molecule, the GI50 in [19] and in experiment [20] was > 100 µM (inactive) in each case.

The values are drawn from ChEMBL document CHEMBL1201862, “PubChem BioAssay data set” (2004).
